Reference: patent US8318446B2, “DNA-damage-induced proteolysis” (California Institute of Technology, priority 2008, dated 2012)
Like-named read-outs stand apart in the source and are kept apart here.

Tests used:
[1] = tested on: Bcl-xL; test: Bcl-xL level in extracts of MESC2.10 neurons, Western blotting; type: cell-based, human
Source text: FIG. 6A is a western blot showing the expression of Bcl-XL. Extracts of control and etoposide-treated MESC2.10 neurons were examined for Bcl-xL by Western blotting. […] Fold changes were normalized to the intensity of loading control, and compared to that of untreated control neurons (lane 5).

[2] = tested on: caspase-6; type: cell-based, human; settings: etoposide 6 hrs; VEID-p-nitroanaline substrate; sodium salicylate 5 mg/ml 1 hour prior
[3] = tested on: Bcl-xL; settings: Hdh^Q111/Q111 neurons; NaSal 5 mg/ml 1 hour prior to 10 μM etoposide
Procedure: (§1) Neurons were harvested and separated into cytoplasmic and nuclear fractions using the NE-PER kit (PIERCE) according to instructions. For most experiments, ˜120 μg of lysate were used for SDS-PAGE and Western blotting with the indicated antibodies. Reactive bands in Western blots were detected by enhanced chemiluminescence (ECL) using a gel documentation system.

[4] = tested on: caspase-3; type: cell-based, human; settings: etoposide 6 hrs; DEVD-p-nitroanaline substrate; sodium salicylate 5 mg/ml 1 hour prior
[5] = tested on: endogenous Htt; test: Etoposide-induced Htt proteolysis in MESC2.10 neurons, Western blotting with anti-Htt mAb 2166; type: cell-based, human; settings: for effect on etoposide-induced Htt proteolysis: pre-incubation 1 hr prior to 10 μM etoposide, sodium salicylate 5 mg/ml, caspase inhibitors 20 μM
Source text: Extracts were examined for Htt by Western blotting. […] Fold changes for full-length Htt levels were obtained by measuring the band intensity in each lane, normalized to tubulin and compared to non-treated control.
EGFP-lentivirus was used a control (C). […] Second and third panels show staining for Bcl-xL and pro-caspase-3, respectively. IKKγ levels were used as a loading control.
as §1

[6] = tested on: Htt; test: γ-irradiation-induced Htt cleavage in MESC2.10 neurons; type: cell-based, human; settings: 5 Gy, 6 hours; sodium salicylate 5 mg/ml 1 hour prior to irradiation
Procedure: Cells were irradiated with 5 Gy and further incubated for the indicated time. Sodium salicylate (NaSal, lane 5) was added at a concentration of 5 mg/ml 1 hour prior to irradiation and incubated for 6 hours. […] Lanes 7 and 8 represent MESC2.10 neurons transduced with an IKKβ shRNA lentivirus (FIG. 4A) and irradiated with 5 Gy and incubated for 6 hours. […] Tubulin was used as a loading control
To confirm that Htt cleavage is induced by DNA damage and not other, secondary effects of etopoisde, we examined whether DNA damage induced by γ-irradiation of neurons could have a similar effect on Htt cleavage. […] The difference may be due to rapid induction of double stranded DNA breaks by irradiation.

[7] = biological target: recombinant IKKβ (Homo sapiens, UniProt O14920); settings: full-length Bcl-xL, 32P-γ-ATP, 30 min at 30° C.
Procedure: Active recombinant IKKα or IKKβ were tested for the ability to phosphorylate Bcl-xL. The kinase assay was performed using recombinant Bcl-xL as a substrate. Products were visualized by autoradiography. IκBα was used as a positive control substrate for IKKα.
(§2) To determine IKKα activity, lyastes were first depleted of IKKβ complexes using 4 μg of anti-IKKγ and anti-IKKβ antibodies coupled to protein G. The depleted lysates were used to isolate IKKα complexes with 2 μg of anti-IKKα antibody. GST-IκBα was used as a substrate to measure kinase activity. To examine whether IKKs phosphorylate Bcl-xL, 0.5 μg of either IKKα or IKKβ were incubated with 1 μg of full-length Bcl-xL in the presence of 32P-γ-ATP for 30 min at 30° C. GST protein was used as a negative control. All kinase products were examined by SDS-PAGE and autoradiography.
The possibility that activated IKKβ phosphorylates Bcl-xL was tested. To avoid contamination with other neuronal kinases that may co-immunoprecipitate with IKKβ, recombinant IKKs were used for in vitro kinase assays with Bcl-xL as the substrate.

[8] = biological target: T1, IKKβ (Homo sapiens, UniProt O14920); settings: cited from earlier work
T1 sequence (O14920 1-756): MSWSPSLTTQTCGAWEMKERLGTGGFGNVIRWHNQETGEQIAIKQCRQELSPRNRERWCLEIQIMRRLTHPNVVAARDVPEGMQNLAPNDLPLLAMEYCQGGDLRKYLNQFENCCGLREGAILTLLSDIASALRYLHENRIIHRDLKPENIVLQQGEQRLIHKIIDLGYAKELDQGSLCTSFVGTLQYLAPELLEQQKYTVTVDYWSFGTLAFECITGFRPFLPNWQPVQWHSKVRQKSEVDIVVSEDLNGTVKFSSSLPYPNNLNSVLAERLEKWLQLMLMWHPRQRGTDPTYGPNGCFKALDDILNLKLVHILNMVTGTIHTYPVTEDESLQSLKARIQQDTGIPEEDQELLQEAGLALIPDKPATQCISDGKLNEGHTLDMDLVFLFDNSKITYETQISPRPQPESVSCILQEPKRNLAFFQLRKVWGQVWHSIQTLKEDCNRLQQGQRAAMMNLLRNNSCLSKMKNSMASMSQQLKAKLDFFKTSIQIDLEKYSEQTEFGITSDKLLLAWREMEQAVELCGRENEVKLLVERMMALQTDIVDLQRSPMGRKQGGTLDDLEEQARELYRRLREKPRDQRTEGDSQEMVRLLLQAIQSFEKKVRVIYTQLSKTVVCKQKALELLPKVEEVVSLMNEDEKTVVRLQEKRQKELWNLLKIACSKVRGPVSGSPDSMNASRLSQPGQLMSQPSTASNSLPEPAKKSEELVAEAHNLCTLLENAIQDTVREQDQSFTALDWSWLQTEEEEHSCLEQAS

[9] = tested on: IKKα; test: IKKα kinase assay on IKKα complexes devoid of IKKβ from MESC2.10 neurons; type: cell-based, human; settings: longer treatment with 10 μM etoposide
Procedure: as §2
To determine whether DNA damage influences IKKα activity, IKKα complexes devoid of IKKβ was obtained. Neuronal extracts were depleted by prior incubation with anti-IKKγ and anti-IKKβ antibodies, and IKKα complexes were subsequently immunoprecipitated.

[10] = biological target: T2, caspase-6 (Homo sapiens, UniProt P55212); type: cell-based; settings: MESC2.10 neurons, 6 hrs of etoposide treatment, western blot
T2 construct: endogenous in cells; host or cells: differentiated MESC2.10 human neurons (lysates)
T2 sequence (P55212 1-293): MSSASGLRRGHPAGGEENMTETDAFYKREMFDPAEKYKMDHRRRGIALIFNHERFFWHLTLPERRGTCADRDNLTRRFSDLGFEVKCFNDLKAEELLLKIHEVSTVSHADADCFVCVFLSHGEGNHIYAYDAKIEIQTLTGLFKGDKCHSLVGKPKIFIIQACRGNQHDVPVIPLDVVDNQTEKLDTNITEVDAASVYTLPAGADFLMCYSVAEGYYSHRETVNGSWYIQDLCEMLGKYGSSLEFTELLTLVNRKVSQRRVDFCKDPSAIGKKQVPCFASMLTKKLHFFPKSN

[11] = tested on: p53; test: Nuclear p53 in MESC2.10 neurons, western blotting; type: cell-based, human; settings: etoposide
Source text: Nuclear extracts from MESC2.10 neurons were examined for the presence p53 by western blotting. Lanes 1-4 are nuclear extracts from MESC2.10 neurons with EGFP and lanes 5-8 are from neurons that were transduced with IKKα lentiviruses (FIG. 3C). Staining with anti-lamin B1 was used to ensure equal loading (bottom panel).

[12] = biological target: T3, caspase-3 (Homo sapiens, UniProt P42574); type: cell-based; settings: MESC2.10 neurons, 6 hrs of etoposide treatment, western blot
T3 construct: Fifty μg of each lysate was incubated with either caspase-3 substrate (DEVD conjugated to p-nitroanaline); endogenous in cells; host or cells: differentiated MESC2.10 human neurons (lysates)
T3 sequence (P42574 1-277): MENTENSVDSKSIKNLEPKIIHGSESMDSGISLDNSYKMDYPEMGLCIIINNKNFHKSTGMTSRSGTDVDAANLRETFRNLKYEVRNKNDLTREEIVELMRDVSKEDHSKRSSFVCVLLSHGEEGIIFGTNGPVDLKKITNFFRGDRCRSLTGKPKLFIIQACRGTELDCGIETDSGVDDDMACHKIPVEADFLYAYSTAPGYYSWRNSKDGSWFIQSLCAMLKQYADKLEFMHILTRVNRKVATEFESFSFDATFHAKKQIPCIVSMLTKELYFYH

[13] = tested on: MESC2.10 neurons; test: BrdU incorporation (cell cycle activation) in MESC2.10 neurons; type: cell-based, human; settings: Day 6 differentiated neurons, 10 μM etoposide 4 hours, BrdU 1 mM
Procedure: BrdU incorporation was detected described in M&M. Image was captured with a confocal microscope.
BrdU (1 mM) was added and incubated for additional 2 hours. Cells were fixed in 5% paraformaldehyde followed by permeabilization in 70% methanol in PBS at −20° C. overnight. To denature chromatin, coverslips were immersed in 2 N HCl for 30 minutes at 37° C. and neutralized in 0.1 M borate buffer (pH 8.5) by washing 2 times for 5 minutes. To detect BrdU incorporation, coverslips were incubated with Rat-anti-BrdU (1:200). Anti-Tuj-1 (1:1000) was used to stain neurons. Goat anti rat conjugated to rhodamine and goat anti-mouse conjugated to FITC (1:500) were used as secondary. Pictures were captured with a confocal microscope.

[14] = tested on: IKKα; test: IKKα protein level in MESC2.10 neurons, western blot; type: cell-based, human
Source text: Lysates were first treated with a combination of anti-IKKβ and IKKγ antibodies coupled to agarose beads to deplete IKKγ/IKKβ/IKKα complex. […] Fold changes of IKK activity were quantified by measuring the band intensity using Image J, and compared to non-treated neurons.
FIG. 3C is a western blot showing IKKα levels in the control and IKKα-expressing neurons. MESC2.10 neuroblasts were transduced with an IKKα recombinant lentivirus and differentiated as described below. EGFP lentivirus was used as a control.
IKKα was cloned into the lentiviral FUGW vector under the control of a ubiquitin promoter. An EGFP-lentivirus was used as a control. The Bcl-xL cDNA was cloned from MESC2.10 neurons by RT-PCR using standard procedures and its identity confirmed by sequencing. The cDNA was subsequently inserted into FUGW lentiviral vector. The shRNAs for IKKβ were cloned in a lentiviral backbone. Lentiviruses were produced by transfection of 293 cells using calcium phosphate precipitation. Supernatants of virus-producing cells were harvested 48 hr post-transfection and concentrated on Amicon Ultra columns. An EGFP virus was used as a control to monitor viral titer. A multiplicity of infection of 4:1 was used to infect MESC2.10 neuroblasts. Expression of IKKα, Bcl-xL and reduction of IKKβ were determined by Western blotting.

[15] = tested on: p65 NF-κB; test: p65 NF-κB binding to consensus DNA oligonucleotides, nuclear extracts of MESC2.10 neurons; type: cell-based, human; settings: etoposide
Procedure: Lanes 1-4 show p65 binding from nuclear extracts of control and lanes 5-8 show p65 binding from neurons transduced with a lentivirus expressing IKKα (FIG. 3C).
Wells with mutated NF-κB DNA oligonucleotides were used to ensure specificity of the binding (column 4).
Nuclear extracts for control or etoposide-treated MESC2.10 neurons were obtained using the cell fractionation kit from pierce according to the instructions provided. Fifty μg of each nuclear extract was incubated for an hour at room temperature on 96 well plates coated with consensus NF-κB oligonucleotides (p65 or p52). Mutated NF-κB oligonucleotides were used to confirm binding specificity. For competition assays, nuclear extracts were pre-incubated with NF-κB oligonucleotides for 1 hour on ice and then added to the coated wells. After washing, each well was incubated with anti-p65 or anti-p52 antibodies for 30 min at 37° C. Wells were washed, followed by incubation with a secondary antibody conjugated to HRP. TMB (3,3′,5,5′-tetramethylbenzidine) was added for 10 min. Binding was measured in a microplate reader at 655 nm.

[16] = tested on: full-length, mutant Htt protein; test: Etoposide-induced proteolysis of mutant Htt in striatal Hdh^Q111/Q111 neurons; type: cell-based, mouse; settings: 10 μM etoposide for 6 hours
Source text: Processing of samples was as described in FIG. 3A. […] IKKγ was used as loading control.

[17] = tested on: IKKα; test: Activation of IKKα in MESC2.10 neurons expressing Flag-tagged IKKα, immune kinase assay; type: cell-based, human; settings: neurons starved for growth factors 8 hours; IGF-1 20 ng/ml, netrin 100 ng/ml
Procedure: IGF-1 was added at 20 ng/ml for the indicated time.
Netrin was added at 100 ng/ml for the indicated time.
The ability of a molecule to increase IKKα activation can be measured using assays that are well known in the art. For example and without limitation, IKKα activators can be identified using immune kinase assays and gene reporter assay. In an example of immune kinase assays, MESC2.10 neurons engineered to express a Flag-tagged IKKα are starved for growth factors for 8 hours. Candidate IKKα activators are added, respectively, to the starved MESC2.10 neurons for desired period of time. Neurons are harvested and cytoplasmic extracts are used to immunoprecipitate IKKα using agarose beads coupled to anti-Flag antibody. Complexes are assayed for the ability to phosphorylate a recombinant substrate GST-IκBα in the presence of radioactive […]. Products are examined by SDS-PAGE followed by autoradiography.
MESC2.10 neurons engineered to express a Flag-tagged IKKα were starved for growth factors for 8 hours. 20 ng/ml insulin-like growth factor-1 (IGF-1) and 100 ng/ml netrin were added, respectively, to the starved MESC2.10 neurons for the indicated time. […] Fold changes of IKK activity were quantified by measuring the band intensity using Image J, and compared to non-treated neurons.

O=C([O-])c1ccccc1O.[Na+] [sodium salicylate]
effect on etoposide-induced reduction of Bcl-xL ([1]; MESC2.10 neurons pre-treated or transduced, then etoposide): did not affect Bcl-xL
caspase-6 activity in neuronal extracts [2]: lowered the etoposide-induced activation of caspases
effect on etoposide-induced reduction of Bcl-xL [3]: prevented
caspase-3 activity in neuronal extracts [4]: lowered the etoposide-induced activation of caspases
effect on etoposide-induced Htt proteolysis [5]: blocks etoposide-induced Htt proteolysis
effect on Htt cleavage induced by γ-irradiation [6]: blocked Htt cleavage
phosphorylation of Bcl-xL by IKKβ [7]: prevented the reaction

arsenite
IKKβ activation [8]: potently inhibited IKKβ activation

Ac-VEID-aldehyde
effect on etoposide-induced Htt proteolysis [5]: no significant effect

COc1cc([C@@H]2c3cc4c(cc3[C@@H](O[C@@H]3O[C@@H]5CO[C@@H](C)O[C@H]5[C@H](O)[C@H]3O)[C@H]3COC(=O)[C@H]23)OCO4)cc(OC)c1O [etoposide]
IKKα kinase activity after etoposide treatment [9]: reduces IKKα activity
level of intact Bcl-xL after etoposide ([1]; MESC2.10 neurons, etoposide 6 hours): reduced
caspase-6 activity in neuronal extracts [2]: elevated
procaspase-6 level / activation [10]: reduced
nuclear p53 [11]: accumulates in the nucleus
procaspase-3 level / activation [12]: reduced
caspase-3 activity in neuronal extracts [4]: elevated
increase of the level of endogenous, full-length Htt ([5]; MESC2.10 neurons, 10 μM etoposide, early time points): ~4 fold
time required for maximal Htt proteolysis ([5]; MESC2.10 neurons, etoposide): ~6 h
proteolysis of endogenous Htt caused by the agent ([5]; MESC2.10 neurons, longer exposure to 10 μM etoposide): induces proteolysis of endogenous Htt
cell cycle activation measured by BrdU incorporation [13]: promotes cell cycle activation
level of IKKα protein after etoposide treatment [14]: decrease
p65 NF-κB DNA binding activity [15]: activated p65 NF-κB DNA binding
cleavage of full-length mutant Htt caused by the agent [16]: promoted cleavage of full-length, mutant Htt protein

Ac-DEVD-CHO
effect on etoposide-induced Htt proteolysis [5]: reduced Htt proteolysis

IGF-1: insulin-like growth factor-1, IKKα activator
activation of IKKα [17]: activates IKKα
